From patent publication US20080027022A1, “METHOD TO TREAT GASTRIC LESIONS” (priority 2006, published 2008)

How the values were obtained:
Type in all cases: in vivo, rat
[1] = test system: Aspirin-induced gastric injury; assay: Aspirin-induced gastric mucosal injury model (ulcer index); details: rats, 3 h after aspirin, control 29.8±7.7
Experimental: Male Sprague-Dawley rats weighting 250-300 g were fed a standard laboratory diet and water ad libitum, and kept in cages in a temperature and humidity controlled room with a 12 hour dark-light cycle before and during the experiment. Prior to administration of aspirin, animals were deprived of food for 24 hours but had free access to water. This experimental protocol was approved by the Akita University Animal Care Committee. Aspirin-induced gastric injury was produced by intragastric administration of aspirin (200 mg/kg) and HCl (0.15 N, 8 ml/kg). ATL-146e (2.5 or 5 μg/kg, n=5 in each dose) or vehicle was injected intraperitoneally 30 minutes prior to aspirin administration. The animals were sacrificed by stunning and cervical dislocation 3 hours after aspirin administration and the stomach was removed. Gastric mucosal lesions were measured by two independent observers blinded to the treatment. The ulcer index was calculated as the sum of the lengths of all lesions.

gastric acid secretion = assay: Gastric secretion, pylorus-ligation method; details: rats, 5 μg/kg i.p., 3 h
Experimental: Gastric juice was collected using the pylorus-ligation method. Briefly, rats were fasted for 24 hours, placed in restraint cages, and injected intraperitoneal with 5 μg/kg of ATL-146e. Thirty minutes after injection, pylorus ligation was performed. The stomach was removed 3 hours after pylorus ligation, and the gastric contents were collected. Following centrifugation the acid content of the supernatant was determined by titration with 0.01 mol NaOH to pH 7.0 using pH meter (f50 pH Meter; Beckman, Tokyo, Japan), and used to calculate gastric acid secretion in mEq/3 h.

IL-1β = assay: Gastric mucosal concentration of IL-1β after aspirin (ELISA); details: rats, gastric mucosa, 3 h after aspirin
Experimental: (§1) One hundred milligrams of scraped mucosa was homogenized for 30 sec with a polytron homogenizer (PT 1200, KInematica AG, Littau, Switzerland) in 1.0 ml of ice-cold potassium phosphate buffer (pH 7.4). Following centrifugation at 10,000 g for 10 minutes, aliquots of homogenate supernatants in PBS were obtained by centrifugation (10,000 g for 10 minutes). The total protein was measured by Bradford's method. The concentration of TNF-α and IL-1β in the supernatant of mucosal homogenates was determined by ELISA (R&D systems Inc., Minneapolis, Minn., USA) according to the manufacture's instruction. After color development, optimal density was measured with microplate reader. The concentration of TNF-α and IL-1β were expressed as pictogram/mg protein.

myeloperoxidase (MPO) = assay: Myeloperoxidase (MPO) concentration in the gastric mucosa after aspirin; details: rats, 3 h after aspirin, normal 2.8±0.2, vehicle 13.8±1.2, P<0.001
Experimental: An assay of gastric mucosal myeloperoxidase concentration was applied to quantify the degree of neutrophil infiltration. Three hundred milligrams of scraped mucosa was homogenized for 30 sec with a polytron homogenizer (PT 1200, KInematica AG, Littau, Switzerland) in 1.0 ml of ice-cold 0.5% hexadecyliltrimethylammonium bromide in 50 mM phosphate buffer (pH 6.0). Hexadecyliltrimethylammonium bromide is used to negate the pseudoperoxidase activity of hemoglobin and to solubilize membrane-bound MPO. The homogenate was sonicated (U50 IKA Werke Grm1H and Co. KG, Staufen, Germany) for 10 seconds, freeze-thawed three times and centrifuged for 20 minutes at 18,000 g. The supernatant was taken for determination of the enzyme activity utilizing an ELISA kit (Bioxytech, Oxis International, Inc. Portland, Oreg., USA). The change in absorbance at 405 nm was measured with a spectrophotometer (Microplate reader model 3550, Bio-Rad, Hercules, Calif., USA). The concentration of myeloperoxidase was expressed as nanogram per mg protein measured using Bradford's method.

PGE2 = assay: Mucosal content of PGE2 (radioimmunoassay)
Experimental: A part of fundic mucosa (about 100 mg) was excised for determination of PGE2 synthesis. The samples were weighed, finely minced with scissors for 15 sec, then suspended in 1.0 ml of 10 mM sodium phosphate buffer (pH 7.4). The samples were then incubated in a shaking bath (37°) for 29 min followed by centrifugation (9000 g for 30 sec). The supernatant was frozen and subsequent determination of PGE2 was performed by radioimmunoassay using PGE2 [125I] RIA kit (Dupont/NEN, Boston, Mass., USA).

TNF-α = assay: Gastric mucosal concentration of TNF-α after aspirin (ELISA); details: rats, gastric mucosa, 3 h after aspirin
Experimental: as §1

For `CCNC(=O)C1OC(n2cnc3c(N)nc(C#CCC4CCC(C(=O)OC)CC4)nc32)C(O)C1O` (stereo not shown) [ATL-146e, 4-{3-[6-Amino-9-(5-ethylcarbamoyl-3,4-dihydroxy-tetrahydro-furan-2-yl)-9H-purin-2-yl]-prop-2-ynyl}-cyclohexanecarboxylic acid methyl ester], the “ulcer index (total length of gastric erosions)” value ([1]; 2.5 μg/kg i.p. 30 min before aspirin 200 mg/kg + HCl, P<0.05) was 7.0±2.34 mm, the “ulcer index (total length of gastric erosions)” value ([1]; 5.0 μg/kg i.p. 30 min before aspirin 200 mg/kg + HCl, P<0.01) was 3.1±1.42 mm and the “increase in gastric acid output” value (gastric acid secretion; P<0.05) was “threefold”. For the same compound, the gastric acid output (gastric acid secretion; without compound 114, P<0.05) was 326 mmolq/3 h, the “reduction of the increase in IL1-β above control levels caused by aspirin” value (IL-1β; 2.5 μg/kg) was 64.0% and the “reduction of the increase in IL1-β above control levels caused by aspirin” value (IL-1β; 5 μg/kg) was 97.2%. For the same compound, the “MPO concentration in the gastric mucosa” value (myeloperoxidase (MPO); 2.5 μg/kg pretreatment) was 2.9±0.35 μg/g protein, the “MPO concentration in the gastric mucosa” value (myeloperoxidase (MPO); 5 μg/kg pretreatment) was 2.7±0.14 μg/g protein and the “effect on the reduction of gastric PGE2 concentration induced by aspirin” value (PGE2; rats, 5 μg/kg before aspirin 200 mg/kg, P>0.05 vs. aspirin alone) was “did not interfere with the reduction of gastric PGE2 concentration induced by aspirin”. The “reduction of the increase in TNF-α above control levels caused by aspirin” value (TNF-α; 2.5 μg/kg) was 90.3% and the “reduction of the increase in TNF-α above control levels caused by aspirin” value (TNF-α; 5 μg/kg) was 99.7%.
For `CC(=O)Oc1ccccc1C(=O)O` [aspirin, acetylsalicylic acid], the “reduction of PGE2 concentration vs vehicle-treated rats” value (PGE2; aspirin 200 mg/kg alone, P<0.05) was 82.3% and the “concentration of PGE2 in gastric mucosa” value (PGE2; rats, aspirin 200 mg/kg alone (group C), vehicle-treated 255.3±64.7) was 47.4 ± 5.6 ng/g.
